Here are results for two compounds from ChEMBL document CHEMBL3044925, “Synthesis of piperazino and morpholino derivatives of aryloxypropane with potential analgesic and possible antimigraine activities” (Med Chem Res, 2011).

Data set [1] has as its system Mus musculus. The data set is described as follows: Neurotoxicity against Mus musculus MFI (mouse) assessed as excitation at 120 mg/kg, ip. Format: toxicity, organism-based. Also on record: dose 120 mg/kg, route intraperitoneal. To be noted: in vivo.
For data set [2], the system named is Mus musculus. The data set is described as follows: Neurotoxicity in ip dosed Mus musculus MFI (mouse). Format: toxicity, organism-based. As to conditions: in vivo.
Data set [3] relates to Mus musculus. The data set is described as follows: Neurotoxicity against Mus musculus MFI (mouse) assessed as muscle twitching at 180 mg/kg, ip. Type of data set: toxicity, organism-based, Muscle tissue. Also on record: dose 180 mg/kg, route intraperitoneal. To be noted: in vivo.
Data set [4] deals with Mus musculus. The data set is described as follows: Neurotoxicity against Mus musculus MFI (mouse) assessed as irritability at 180 mg/kg, ip. Format: toxicity, organism-based. More on the design: dose 180 mg/kg, route intraperitoneal. As to conditions: in vivo.
The test system of data set [5] is Mus musculus. The data set is described as follows: Neurotoxicity against Mus musculus MFI (mouse) assessed as skeletal muscle incoordination at 120 mg/kg, ip. Format: toxicity, organism-based, Muscle tissue. More on the design: dose 120 mg/kg, route intraperitoneal. As to conditions: in vivo.
The subject of data set [6] is Mus musculus. The data set is described as follows: Neurotoxicity against Mus musculus MFI (mouse) assessed as irritability at 120 mg/kg, ip. Format: toxicity, organism-based. More on the design: dose 120 mg/kg, route intraperitoneal. To be noted: in vivo.
Data set [7] concerns Mus musculus. The data set is described as follows: Neurotoxicity against Mus musculus MFI (mouse) assessed as tremors at 60 mg/kg, ip. Format: toxicity, organism-based. More on the design: dose 60 mg/kg, route intraperitoneal. As to conditions: in vivo.
For data set [8], the system named is Mus musculus. The data set is described as follows: Neurotoxicity against Mus musculus MFI (mouse) assessed as tail erection at 180 mg/kg, ip. Type of data set: toxicity, organism-based. As to conditions: in vivo. More on the design: dose 180 mg/kg, route intraperitoneal.
In data set [9] the test system is Mus musculus. The data set is described as follows: Neurotoxicity against Mus musculus MFI (mouse) assessed as eye protrusion at 180 mg/kg, ip. Format: toxicity, organism-based. As to conditions: in vivo. More on the design: dose 180 mg/kg, route intraperitoneal.
For data set [10], the system named is Mus musculus. The data set is described as follows: Neurotoxicity against Mus musculus MFI (mouse) assessed as epilepsy at 60 mg/kg, ip. More on the design: dose 60 mg/kg, route intraperitoneal. As to conditions: in vivo. Type of data set: toxicity, organism-based.
Data set [11] concerns Mus musculus. The data set is described as follows: […] activity in Mus musculus MFI (mouse) assessed as inhibition of PBQ-induced writhing at 60 mg/kg, ip administered 1.5 hr prior to PBQ-challenge measured after 10 min relative to aspirin. Type of data set: functional. To be noted: route intraperitoneal. Background: In writhing tests, fewer writhes than in controls are read as antinociception.

Data set [12] relates to Mus musculus. The data set is described as follows: Neurotoxicity against Mus musculus MFI (mouse) assessed as tail erection at 60 mg/kg, ip. Type of data set: toxicity, organism-based. More on the design: dose 60 mg/kg, route intraperitoneal. To be noted: in vivo.
Data set [13] concerns Mus musculus. The data set is described as follows: Neurotoxicity against Mus musculus MFI (mouse) assessed as skeletal muscle incoordination at 180 mg/kg, ip. More on the design: dose 180 mg/kg, route intraperitoneal. Type of data set: toxicity, organism-based, Muscle tissue. To be noted: in vivo.
In data set [14] the test system is Mus musculus. The data set is described as follows: Neurotoxicity against Mus musculus MFI (mouse) assessed as tail erection at 120 mg/kg, ip. Type of data set: toxicity, organism-based. More on the design: dose 120 mg/kg, route intraperitoneal. To be noted: in vivo.
The test system of data set [15] is Mus musculus. The data set is described as follows: Neurotoxicity against Mus musculus MFI (mouse) assessed as hair erection at 120 mg/kg, ip. More on the design: dose 120 mg/kg, route intraperitoneal. As to conditions: in vivo. Type of data set: toxicity, organism-based.
For data set [16], the system named is Mus musculus. The data set is described as follows: Neurotoxicity against Mus musculus MFI (mouse) assessed as eye protrusion at 60 mg/kg, ip. Type of data set: toxicity, organism-based. More on the design: dose 60 mg/kg, route intraperitoneal. As to conditions: in vivo.
For data set [17], the system named is Mus musculus. The data set is described as follows: Neurotoxicity against Mus musculus MFI (mouse) assessed as irritability at 60 mg/kg, ip. Format: toxicity, organism-based. More on the design: dose 60 mg/kg, route intraperitoneal. To be noted: in vivo.
The subject of data set [18] is Mus musculus. The data set is described as follows: Neurotoxicity against Mus musculus MFI (mouse) assessed as muscle twitching at 120 mg/kg, ip. Format: toxicity, organism-based, Muscle tissue. To be noted: in vivo. Also on record: dose 120 mg/kg, route intraperitoneal.
Data set [19] relates to Mus musculus. The data set is described as follows: Neurotoxicity against Mus musculus MFI (mouse) assessed as excitation at 180 mg/kg, ip. Format: toxicity, organism-based. To be noted: in vivo. More on the design: dose 180 mg/kg, route intraperitoneal.
The test system of data set [20] is Mus musculus. The data set is described as follows: Neurotoxicity against Mus musculus MFI (mouse) assessed as effect on respiration at 120 mg/kg, ip. Format: toxicity, organism-based. Also on record: dose 120 mg/kg, route intraperitoneal. To be noted: in vivo.
The test system of data set [21] is Mus musculus. The data set is described as follows: Neurotoxicity against Mus musculus MFI (mouse) assessed as hair erection at 180 mg/kg, ip. As to conditions: in vivo. Format: toxicity, organism-based. Also on record: dose 180 mg/kg, route intraperitoneal.
Data set [22] has as its system Mus musculus. The data set is described as follows: Neurotoxicity against Mus musculus MFI (mouse) assessed as hair erection at 60 mg/kg, ip. Type of data set: toxicity, organism-based. More on the design: dose 60 mg/kg, route intraperitoneal. To be noted: in vivo.
Data set [23] deals with Mus musculus. The data set is described as follows: Neurotoxicity against Mus musculus MFI (mouse) assessed as skeletal muscle incoordination at 60 mg/kg, ip. Format: toxicity, organism-based, Muscle tissue. Also on record: dose 60 mg/kg, route intraperitoneal. As to conditions: in vivo.
Data set [24] relates to Mus musculus. The data set is described as follows: […] activity in Mus musculus MFI (mouse) assessed as inhibition of PBQ-induced writhing at 120 mg/kg, ip administered 1.5 hr prior to PBQ-challenge measured after 10 min relative to aspirin. Format: functional. To be noted: route intraperitoneal.
Data set [25] deals with Mus musculus. The data set is described as follows: […] activity in Mus musculus MFI (mouse) assessed as inhibition of PBQ-induced writhing at 180 mg/kg, ip administered 1.5 hr prior to PBQ-challenge measured after 10 min relative to aspirin. To be noted: route intraperitoneal. Type of data set: functional.
For data set [26], the system named is Mus musculus. The data set is described as follows: Neurotoxicity against Mus musculus MFI (mouse) assessed as excitation at 60 mg/kg, ip. Type of data set: toxicity, organism-based. Also on record: dose 60 mg/kg, route intraperitoneal. As to conditions: in vivo.
Data set [27] deals with Mus musculus. The data set is described as follows: Neurotoxicity against Mus musculus MFI (mouse) assessed as tremors at 180 mg/kg, ip. Type of data set: toxicity, organism-based. Also on record: dose 180 mg/kg, route intraperitoneal. To be noted: in vivo.
The test system of data set [28] is Mus musculus. The data set is described as follows: […] activity in ip dosed Mus musculus MFI (mouse) assessed as inhibition of PBQ-induced writhing administered 1.5 hr prior to PBQ-challenge measured after 10 min. Format: functional. To be noted: read-out: MED.
In data set [29] the test system is Mus musculus. The data set is described as follows: Neurotoxicity against Mus musculus MFI (mouse) assessed as eye protrusion at 120 mg/kg, ip. Type of data set: toxicity, organism-based. To be noted: in vivo. Also on record: dose 120 mg/kg, route intraperitoneal.
Data set [30] has as its system Mus musculus. The data set is described as follows: Neurotoxicity against Mus musculus MFI (mouse) assessed as effect on respiration at 60 mg/kg, ip. Type of data set: toxicity, organism-based. More on the design: dose 60 mg/kg, route intraperitoneal. To be noted: in vivo.
Data set [31] relates to Mus musculus. The data set is described as follows: Neurotoxicity against Mus musculus MFI (mouse) assessed as tremors at 120 mg/kg, ip. Format: toxicity, organism-based. As to conditions: in vivo. More on the design: dose 120 mg/kg, route intraperitoneal.
Data set [32] relates to Mus musculus. The data set is described as follows: Neurotoxicity against Mus musculus MFI (mouse) assessed as effect on respiration at 180 mg/kg, ip. Type of data set: toxicity, organism-based. More on the design: dose 180 mg/kg, route intraperitoneal. To be noted: in vivo.
In data set [33] the test system is Mus musculus. The data set is described as follows: Neurotoxicity against Mus musculus MFI (mouse) assessed as muscle twitching at 60 mg/kg, ip. Format: toxicity, organism-based, Muscle tissue. Also on record: dose 60 mg/kg, route intraperitoneal. As to conditions: in vivo.
Data set [34] has as its system Mus musculus. The data set is described as follows: Neurotoxicity against Mus musculus MFI (mouse) assessed as epilepsy at 180 mg/kg, ip. Also on record: dose 180 mg/kg, route intraperitoneal. As to conditions: in vivo. Format: toxicity, organism-based.
Data set [35] deals with Mus musculus. The data set is described as follows: Neurotoxicity against Mus musculus MFI (mouse) assessed as epilepsy at 120 mg/kg, ip. As to conditions: in vivo. Also on record: dose 120 mg/kg, route intraperitoneal. Type of data set: toxicity, organism-based.
Data set [36] deals with Mus musculus. The data set is described as follows: […] activity in Mus musculus MFI (mouse) assessed as inhibition of PBQ-induced writhing at 100 mg/kg, ip administered 1.5 hr prior to PBQ-challenge measured after 10 min relative to control. As to conditions: route intraperitoneal. Format: functional.

Broadly, the inhibition in vivo is the percentage by which the read-out fell short of the control. In the case of `CC(COc1cccc(Cl)c1Cl)N1CCN(C)CC1.O=C(O)C(=O)O` (racemic), the Activity entry with Mus musculus [1], in the data set on Mus musculus [3], in the data set with Mus musculus [4], with Mus musculus [5], in the data set with Mus musculus [6] and in the data set with Mus musculus [7] was “Toxic” each time. The Activity result in the data set on Mus musculus [8], in the data set on Mus musculus [9], in the data set on Mus musculus [10], in the data set with Mus musculus [12], in the data set on Mus musculus [13] and in the data set on Mus musculus [14] was “Toxic” throughout. Besides, the Activity result with Mus musculus [15], in the data set on Mus musculus [16], in the data set on Mus musculus [17], with Mus musculus [18], in the data set on Mus musculus [19] and in the data set with Mus musculus [20] was “Toxic” each time. Also, the Activity entry in the data set on Mus musculus [21], in the data set with Mus musculus [22], in the data set with Mus musculus [23], in the data set with Mus musculus [26], with Mus musculus [27] and in the data set with Mus musculus [29] was “Toxic” in each case. In addition, the Activity result with Mus musculus [30], in the data set on Mus musculus [31], with Mus musculus [32], in the data set with Mus musculus [33], with Mus musculus [34] and in the data set on Mus musculus [35] was “Toxic” throughout. Besides, the MTC in the data set on Mus musculus [2] amounted to 120 mg/kg. In addition, the inhibition in vivo at 60 mg/kg in the data set on Mus musculus [11] worked out at 37.5%. The inhibition in vivo at 120 mg/kg with Mus musculus [24] came out at 75%. For the same compound, in the data set on Mus musculus [25], the inhibition in vivo at 180 mg/kg stood at 100%. For the same compound, the minimal effective dose in the data set with Mus musculus [28] was 60 mg/kg.
In the case of `CC(=O)Oc1ccccc1C(=O)O` [ASPIRIN], in the data set on Mus musculus [36], the inhibition in vivo at 100 mg/kg came to 100%.
